Reference: patent US10130619B2, “Amido thiadiazole derivatives as NADPH oxidase inhibitors” (GENKYOTEX SUISSE SA, priority 2014, dated 2018)

These compounds were tested against hNOX1 (Homo sapiens (Human), UniProt Q9Y5S8) (assay: ROS production measurement on hNOX1 membranes (Amplex Red fluorescence assay, assay 1)). Settings: assay 1: membranes from CHO cells overexpressing hNox1, Amplex Red/HRP fluorescence, NADPH 30 μM; non linear regression (GraphPad Prism); read-out: Nox1 inhibitory constant Ki.
Sequence of hNOX1 (Q9Y5S8 whole entry): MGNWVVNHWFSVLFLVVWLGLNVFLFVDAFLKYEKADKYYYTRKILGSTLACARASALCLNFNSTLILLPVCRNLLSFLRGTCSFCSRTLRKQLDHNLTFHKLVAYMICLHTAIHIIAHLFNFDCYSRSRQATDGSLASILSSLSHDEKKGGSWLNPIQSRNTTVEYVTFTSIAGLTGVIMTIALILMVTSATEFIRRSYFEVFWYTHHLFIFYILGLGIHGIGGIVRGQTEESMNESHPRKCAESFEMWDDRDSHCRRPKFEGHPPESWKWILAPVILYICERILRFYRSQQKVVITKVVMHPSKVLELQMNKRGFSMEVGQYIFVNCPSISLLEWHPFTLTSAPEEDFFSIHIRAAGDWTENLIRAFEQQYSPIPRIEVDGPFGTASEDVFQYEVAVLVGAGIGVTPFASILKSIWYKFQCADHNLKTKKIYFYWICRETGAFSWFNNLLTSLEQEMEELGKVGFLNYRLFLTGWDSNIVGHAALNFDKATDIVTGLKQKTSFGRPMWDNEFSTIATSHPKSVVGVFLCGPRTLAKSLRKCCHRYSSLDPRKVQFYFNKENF
Sequence of hNOX1 (P13498 whole entry partner): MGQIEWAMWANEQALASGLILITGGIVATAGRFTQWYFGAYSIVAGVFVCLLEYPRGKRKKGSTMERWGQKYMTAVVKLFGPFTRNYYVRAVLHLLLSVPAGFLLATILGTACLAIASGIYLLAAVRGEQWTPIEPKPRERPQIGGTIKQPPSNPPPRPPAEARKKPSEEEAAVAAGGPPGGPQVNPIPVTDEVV
Assay type: biochemical
Description: Reactive oxygen species (ROS) production generated by hNOX1 enzyme was measured by fluorescence in both cellular and membrane-based assays using the Amplex® Red reagent. In the presence of horseradish peroxidase (HRP), the Amplex® Red reagent (10-acetyl-3,7-dihydroxyphenoxazine, AR), which is a colorless and nonfluorescent derivative of dihydroresorufin, reacts with H2O2 with a 1:1 stoichiometry to produce highly fluorescent resorufin at an excitation and emission wavelengths of 544 nm and 590 nm, respectively.
After resuspension in sonication buffer (11% sucrose, 120 mM NaCl, 1 mM EGTA in PBS, pH 7.4), cells were broken by sonication and centrifuged (200 g, 10 min). The supernatant was layered onto a 17/40% (w/v) discontinuous sucrose gradient and centrifuged (150,000 g for 30 min). Membrane fractions were collected from the 17/40% interface, aliquoted in 10 μl samples and were stored at −80° C. Protein concentration was determined with Bradford reagent. Flavin Adenine Dinucleotide (FAD) (catalog # F6625-500MG), MgCl2 (catalog # M8266-100G), Phosphatidic Acid (PA) (catalog # P3591-50MG) were purchased from Sigma-Aldrich. […] NADPH (catalog #A1395, 0500) was purchased from Applichem. Amplex red (AR) (catalog # A22177) was purchased from Invitrogen. […] FLUOstar OPTIMA microplate reader was supplied by BMG Labtech (Germany). Zephyr® Compact Liquid Handling Workstation was supplied by PerkinElmer (Germany).
Assay 1: ROS Production Measurement on hNOX1 Membranes
All solutions were placed on ice and protected from light.
The NADPH was dissolved in water at a concentration of 12 mM and was transferred in a metal transfer plate kept at 4° C. The NADPH was added to the assay plate to initiate the reaction just before the measurement.
Serial dilution (1:3, 10 serial dilution) of the compounds was performed in 100% DMSO in 96 well polypropylene plate—Row B-H […], Row A, Column 1-10 contained reference compound. Starting concentration was 10^−2 M (10 mM). Final concentration in assay was 10^−4 M (100 μM). Compounds were diluted twice in PBS buffer by transferring 30 μl/well of PBS into 30 μl/well compounds sample in DMSO using Zephyr® Compact Liquid Handling Workstation. Control wells-columns 1 and 12-contained 60 μl DMSO in 50% PBS pH7.
Reaction mixture is dispensed using Zephyr® Compact Liquid Handling Workstation. 90 μl of mix with membrane were dispensed into 96 well black plates—Column 2-11, Column 1 Row A-D, Column 12 Row E-H. 90 μl of control mix were dispensed into assay plate—Column 1 Row E-H, Column 12 Row A-D, which are wells for measuring background signal. 2 μl of compounds were dispensed into each well of assay plate using Zephyr® Compact Liquid Handling Workstation. The reaction mixture with compounds was incubated in assay plates for 20 min at 37° C. in a Titramax microplate incubator with gentle agitation. 10 μl of NADPH is dispensed to the assay plate. Fluorescence reading was recorded with the FLUOstar OPTIMA microplate reader for 10 min at 37° C. (8 cycles, 1 cycle duration 55 sec).
`Cc1nc(O[C@@H](C)c2ccccc2)ccc1C(=O)Nc1nnc(-c2ccncc2)s1` [(43)] was tested, and the Ki was 0.079 µM.
Compound `Cc1nc(OCc2ccccc2)ccc1C(=O)Nc1nnc(-c2ccncc2)s1` [(45)] has a Ki of 0.077 µM.
`COc1cc(C(=O)Nc2nnc(-c3ccncc3)s2)cnc1O[C@@H](C)c1ccccn1` [(46)] was tested, and the Ki was 0.035 µM.
`C[C@H](Oc1ncc(C(=O)Nc2nnc(-c3ccncc3)s2)cc1NCCN(C)C)c1ccccc1` [(51)] was tested, and the Ki was 0.021 µM.
`C[C@H](Oc1ncc(C(=O)Nc2nnc(-c3ccncc3)s2)cc1NCC1CCOCC1)c1ccccc1` [(52)] was tested, and the Ki was 0.018 µM.
`C[C@H](Oc1ncc(C(=O)Nc2nnc(-c3ccncc3)s2)cc1NCC1CCN(C)CC1)c1ccccc1` [(53)] gave a Ki of 0.019 µM.
In the case of `C[C@H](Oc1ncc(C(=O)Nc2nnc(-c3ccncc3)s2)cc1NCCCN(C)C)c1ccccc1` [(63)], the Ki is reported as 0.031 µM.
Work on `C[C@H](Oc1ncc(C(=O)Nc2nnc(-c3ccncc3)s2)cc1NCCO)c1ccccc1` [(65)] yielded a Ki of 0.051 µM.
`C[C@H](Oc1ncc(C(=O)Nc2nnc(-c3ccncc3)s2)cc1NCc1cn(C)cn1)c1ccccc1` [(66)] was tested, and the Ki was 0.066 µM.
For `C[C@H](Oc1ncc(C(=O)Nc2nnc(-c3ccncc3)s2)cc1NC1CCN(C)CC1)c1ccccc1` [(67)], the Ki was 0.075 µM.
For `C[C@H](Oc1ncc(C(=O)Nc2nnc(-c3ccncc3)s2)cc1NCCN1CCOCC1)c1ccccc1` [(68)], the Ki was 0.072 µM.
For `C[C@H](Oc1ncc(C(=O)Nc2nnc(-c3ccncc3)s2)cc1N1CCN(C)CC1)c1ccccc1` [(69)], the Ki was 0.055 µM.
`CNc1cc(C(=O)Nc2nnc(-c3ccncc3)s2)cnc1O[C@@H](CCN(C)C)c1ccccc1` [(75)] was tested, and the Ki was 0.09 µM.
For `COc1cc(C(=O)Nc2nnc(-c3ccncc3)s2)ccc1O[C@@H]1CCc2ccccc21` [(80)], the Ki was 0.027 µM.
In the case of `COc1cc(C(=O)Nc2nnc(-c3ccncc3)s2)ccc1OC1CCCc2ccccc21` (stereo not drawn) [(82)], the Ki is reported as 0.038 µM.
`COc1cc(C(=O)Nc2nnc(-c3ccncc3)s2)ccc1OCc1cscn1` [(83)] was tested, and the Ki was 0.08 µM.
In the case of `CC(Oc1ccc(C(=O)Nc2nnc(-c3ccncc3)s2)cc1OCCN(C)C)c1ccccc1` (stereo not drawn) [(85)], the Ki is reported as 0.037 µM.
Work on `COCCOc1cc(C(=O)Nc2nnc(-c3ccncc3)s2)ccc1OC(C)c1ccccc1` (stereo not drawn) [(86)] yielded a Ki of 0.074 µM.
`COc1cc(C(=O)Nc2nnc(-c3ccncc3)s2)ccc1OCc1cccnc1C` [(89)] was tested, and the Ki was 0.091 µM.
`COc1cc(C(=O)Nc2nnc(-c3ccncc3)s2)ccc1OCc1ccc(C)cn1` [(90)] showed a Ki of 0.1 µM.
Compound `COc1cc(C(=O)Nc2nnc(-c3ccncc3)s2)ccc1OCc1cc(C)on1` [(91)] has a Ki of 0.078 µM.
`COc1ccc(COc2ccc(C(=O)Nc3nnc(-c4ccncc4)s3)cc2OC)cc1` [(92)] showed a Ki of 0.032 µM.
Work on `COc1cc(C(=O)Nc2nnc(-c3ccncc3)s2)ccc1OCc1ccccc1F` [(93)] yielded a Ki of 0.052 µM.
`COc1cc(C(=O)Nc2nnc(-c3ccncc3)s2)ccc1OCc1ccc(F)cc1` [(96)] showed a Ki of 0.014 µM.
Compound `COc1cc(C(=O)Nc2nnc(-c3ccncc3)s2)ccc1OCc1cc(C2CC2)on1` [(98)] has a Ki of 0.074 µM.
`COc1cc(C(=O)Nc2nnc(-c3ccncn3)s2)ccc1O[C@@H](C)c1ccccn1` [(102)] gave a Ki of 0.087 µM.
Work on `COc1cc(C(=O)Nc2nnc(-c3ccncc3F)s2)ccc1O[C@@H](C)c1ccccn1` [(103)] yielded a Ki of 0.013 µM.
Work on `COc1cc(C(=O)Nc2nnc(-c3ccncc3F)s2)ccc1O[C@@H](CO)c1ccccc1` [(105)] yielded a Ki of 0.019 µM.
`COc1cc(C(=O)Nc2nnc(-c3ccncc3F)s2)ccc1O[C@@H](CN(C)C)c1ccccc1` [(106)] was tested, and the Ki was 0.022 µM.
For `O=C(Nc1nnc(-c2ccncc2)s1)c1cnc(O[C@@H](CO)c2ccccc2)c(Cl)c1` [(108)], the Ki was 0.092 µM.
With `COc1cc(C(=O)Nc2nnc(-c3ccncn3)s2)ccc1OCc1ccccc1` [(111)] the Ki was 0.075 µM.
`COc1cc(C(=O)Nc2nnc(-c3ccncn3)s2)cnc1O[C@@H](CN(C)C)c1ccccc1` [(114)] was tested, and the Ki was 0.037 µM.
Work on `COc1cc(C(=O)Nc2nnc(-c3ccnc(C)c3)s2)ccc1O[C@@H](CN(C)C)c1ccccc1` [(115)] yielded a Ki of 0.11 µM.
In the case of `COc1cc(C(=O)Nc2nnc(-c3ccncc3)s2)ccc1O[C@@H](C)Cc1ccccc1` [(116)], the Ki is reported as 0.046 µM.
`COc1cc(C(=O)Nc2nnc(-c3ccncc3)s2)ccc1CN(C)c1ccccn1` [(120)] was tested, and the Ki was 0.093 µM.
`COc1cc(C(=O)Nc2nnc(-c3ccncc3)s2)ccc1Cn1ccc2ccccc21` [(121)] was tested, and the Ki was 0.035 µM.
Compound `CCC(Oc1ccc(C(=O)Nc2nnc(-c3ccncc3)s2)cn1)c1ccccc1` (stereo not drawn) [(134)] has a Ki of 0.071 µM.
Compound `O=C(Nc1nnc(-c2ccncc2)s1)c1ccc(OC2CCc3ccccc32)nc1` (stereo not drawn) [(136)] has a Ki of 0.047 µM.
`C[C@H](Nc1ccc(C(=O)Nc2nnc(-c3ccncc3)s2)cn1)c1ccccc1` [(149)] showed a Ki of 0.078 µM.
Compound `COc1cc(C(=O)Nc2nnc(-c3ccncc3)s2)ccc1OC1CCc2ncccc21` (stereo not drawn) [(151)] has a Ki of 0.015 µM.
`COc1cc(C(=O)Nc2nnc(-c3ccncc3)s2)ccc1OC1COc2ccccc21` (stereo not drawn) [(152)] showed a Ki of 0.038 µM.
For `COc1cc(C(=O)Nc2nnc(-c3ccncc3)s2)ccc1OC(c1ccccc1)C1CC1` (stereo not drawn) [(154)], the Ki was 0.033 µM.
`COc1cc(C(=O)Nc2nnc(-c3ccncn3)s2)ccc1O[C@@H](C)c1ccccc1` [(157)] gave a Ki of 0.11 µM.
`COc1cc(C(=O)Nc2nnc(-c3ccncc3)s2)ccc1OC1Cc2ccccc2C1` [(158)] was tested, and the Ki was 0.022 µM.
Compound `COc1cc(C(=O)Nc2nnc(-c3ccncc3)s2)ccc1OCCc1ccccc1` [(161)] has a Ki of 0.079 µM.
With `COc1cc(C(=O)Nc2nnc(-c3ccncc3)s2)ccc1OCc1ccn(C)n1` [(162)] the Ki was 0.095 µM.
Compound `O=C(Nc1nnc(-c2ccncc2)s1)c1ccc(OCc2ccccc2)cc1F` [(168)] has a Ki of 0.1 µM.
In the case of `CN(C)C(=O)[C@H](Cc1ccccc1)Oc1ccc(C(=O)Nc2nnc(-c3ccncc3)s2)cn1` [(174)], the Ki is reported as 0.096 µM.
For `C[C@H](COc1ccc(C(=O)Nc2nnc(-c3ccncc3)s2)cn1)c1ccccc1` [(178)], the Ki was 0.085 µM.
`COc1ccc(CCCOc2ccc(C(=O)Nc3nnc(-c4ccncc4)s3)cn2)cc1` [(180)] gave a Ki of 0.032 µM.
With `Cc1cc(C(=O)Nc2nnc(-c3ccncc3)s2)cnc1O[C@@H](CN1CCOCC1)c1ccccc1` [(182)] the Ki was 0.037 µM.
`COCC(Oc1ccc(C(=O)Nc2nnc(-c3ccncc3)s2)cc1OC)c1ccccc1` (stereo not drawn) [(183)] gave a Ki of 0.055 µM.
`COc1cc(C(=O)Nc2nnc(-c3ccncc3)s2)ccc1O[C@H](CN1CCOCC1)c1ccccc1` [(185)] showed a Ki of 0.089 µM.
In the case of `O=C(Nc1nnc(-c2ccncc2)s1)c1ccc(O[C@@H](CN2CCC(F)(F)C2)c2ccccc2)nc1` [(187)], the Ki is reported as 0.055 µM.
`COc1cc(C(=O)Nc2nnc(-c3ccncc3)s2)ccc1O[C@@H](CO)c1ccc(F)cc1` [(197)] showed a Ki of 0.024 µM.
In the case of `COc1cc(C(=O)Nc2nnc(-c3ccncc3)s2)ccc1O[C@@H](CN(C)C)c1ccc(F)cc1` [(198)], the Ki is reported as 0.025 µM.
Work on `COc1cc(C(=O)Nc2nnc(-c3ccncc3)s2)ccc1O[C@H](CO)c1ccc(F)cc1` [(199)] yielded a Ki of 0.047 µM.
In the case of `COc1cc(C(=O)Nc2nnc(-c3ccncc3)s2)ccc1O[C@H](CN(C)C)c1ccc(F)cc1` [(200)], the Ki is reported as 0.11 µM.
With `CC(Oc1ccc(C(=O)Nc2nnc(-c3ccncc3)s2)cc1OCC1CCNCC1)c1ccccc1` (stereo not drawn) [Example 1, 4-(1-phenylethoxy)-3-(piperidin-4-ylmethoxy)-N-(5-(pyridin-4-yl)-1,3,4-thiadiazol-2-yl)benzamide] the Ki was 0.018 µM.
`COc1cc(C(=O)Nc2nnc(-c3ccncc3)s2)ccc1O[C@@H](CO)c1ccccc1` [Example 7, (R)-4-(2-hydroxy-1-phenylethoxy)-3-methoxy-N-(5-(pyridin-4-yl)-1,3,4-thiadiazol-2-yl)benzamide] was tested, and the Ki was 0.022 µM.
